The values below come from ChEMBL document CHEMBL1201862, “PubChem BioAssay data set” (2004).

SMILES strings stand for the structures.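 1) Cells in 96-well plates. 2) Compound, 48 h, 5 concentrations. 3) Linear interpolation between surrounding doses. 4) Unreached endpoint = highest concentration. Here, GI50 denotes the concentration required for 50% inhibition of growth.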 The source made the active and inactive calls. No stated cut-off is given here; in the data, active = GI50 up to about 1.1 µM and inactive = higher. A value given as a limit tells only on which side of the number the result lay.

Some test systems named below: A498; A549; COLO 205; HCT-15; HL-60; HOP-62; HOP-92; KM12; LOX IMVI; MDA-MB-231; MDA-MB-435; Malme-3M; NCI-H226; NCI-H460; NCI/ADR-RES; RPMI-8226; SF-295; SN12C; TK-10.
Holding throughout (test): inhibition of tumour cell growth, NCI panel, 48 h

For `O=C1c2ccccc2-[n+]2ccc3c([nH]c4ccccc43)c21` [FASCAPLYSIN CHLORIDE], the GI50 in the test on A498 is 1.58 µM (inactive); in the test on A549 it was 0.565 µM (active); in the test with COLO 205, 0.21 µM (active); with HCT-15, 0.851 µM; in the test on HL-60, 0.404 µM (active); with HOP-62 it was 1.14 µM (inactive). For the same molecule, the GI50 was 1.66 µM (inactive) in the test with HOP-92; 0.18 µM (active) in the test with KM12; 0.245 µM (active) in the test with LOX IMVI; 0.22 µM (active) in the test on MDA-MB-231; 0.179 µM (active) with MDA-MB-435; 0.0586 µM (active) with Malme-3M. The GI50 is 0.964 µM (active) with NCI-H226; 0.263 µM (active) in the test on NCI-H460; 1.21 µM (inactive) with NCI/ADR-RES; 0.186 µM (active) in the test on RPMI-8226; 0.232 µM (active) in the test on SF-295; 0.231 µM (active) in the test on SN12C. Moreover, the GI50 in the test with TK-10 was 1.14 µM (inactive).

`c1ccc(-c2nc(-c3ccccc3SSc3ccccc3-c3nc(-c4ccccc4)nn3-c3ccccc3)n(-c3ccccc3)n2)cc1`: the GI50 in the test on A498 was > 100 µM (inactive); with A549 it was > 100 µM (inactive); with COLO 205 it was > 100 µM (inactive); in the test with HCT-15, above 100 µM; with HL-60, > 100 µM (inactive); in the test on HOP-62, > 10 µM (inactive). Moreover, the GI50 in the test on HOP-92, with KM12, in the test with LOX IMVI, in the test with MDA-MB-231, in the test on MDA-MB-435 and with Malme-3M was > 100 µM (inactive) throughout. The GI50 with NCI-H226, in the test with NCI-H460, in the test with NCI/ADR-RES, in the test with RPMI-8226, in the test on SF-295 and with SN12C was > 100 µM (inactive) each time. For the same molecule, in the test with TK-10, the GI50 was > 100 µM (inactive).

Consider `O=C1c2cccc3cccc(c23)C(=O)N1CCCNCCCNCCCCNCCCNCCCN1C(=O)c2cccc3cccc(c23)C1=O`, for which the GI50 was 6.38 µM (inactive) in the test on A498; 2.67 µM (inactive) in the test on A549; 1.14 µM (inactive) in the test with COLO 205; 12.8 µM in the test on HCT-15; 0.27 µM (active) with HL-60; 3.79 µM (inactive) in the test with HOP-62. Also, the GI50 in the test on HOP-92 was 5.05 µM (inactive); in the test with KM12, 2.74 µM (inactive); with LOX IMVI it was 2.55 µM (inactive); in the test with MDA-MB-231, 3.78 µM (inactive); with MDA-MB-435, 2.73 µM (inactive); with Malme-3M, 2.6 µM (inactive). For the same molecule, the GI50 is 4.46 µM (inactive) in the test on NCI-H226; 1.9 µM (inactive) in the test on NCI-H460; 14.7 µM (inactive) in the test on NCI/ADR-RES; 1.33 µM (inactive) in the test on RPMI-8226; 7.45 µM (inactive) with SF-295; 3.44 µM (inactive) with SN12C. In addition, the GI50 in the test on TK-10 was 11.6 µM (inactive).

With `O=c1c(C(c2ccc3c(c2)Cc2ccccc2-3)c2c(O)oc3ccccc3c2=O)c(O)oc2ccccc12`, the GI50 was 38.5 µM (inactive) in the test with A498; 19.5 µM (inactive) with A549; 20.4 µM (inactive) with COLO 205; 22.2 µM in the test on HCT-15; 29.2 µM (inactive) with HL-60; 32.5 µM (inactive) with HOP-62. For the same molecule, the GI50 with HOP-92 was 19.1 µM (inactive); in the test on KM12, 22.3 µM (inactive); with LOX IMVI, 26.3 µM (inactive); with MDA-MB-231, 28.2 µM (inactive); in the test with MDA-MB-435, 31 µM (inactive); in the test with Malme-3M, 26.2 µM (inactive). Further, the GI50 is > 100 µM (inactive) with NCI-H226; 25.9 µM (inactive) in the test with NCI-H460; > 100 µM (inactive) in the test on NCI/ADR-RES; 44.9 µM (inactive) with RPMI-8226; 25.2 µM (inactive) in the test with SF-295; 20.4 µM (inactive) in the test on SN12C. Further, in the test with TK-10, the GI50 was 56.5 µM (inactive).

As to `NC(=O)C1CCN(Cc2c(Cl)c(Cl)c(CN3CCC(C(N)=O)CC3)c(Cl)c2Cl)CC1`, the GI50 with A498 was 28.3 µM (inactive); in the test with A549, > 100 µM (inactive); with COLO 205 it was > 100 µM (inactive); in the test with HCT-15, above 100 µM; in the test on HL-60, > 100 µM (inactive); in the test on HOP-62, 11.6 µM (inactive). Moreover, the GI50 with HOP-92 is 67.1 µM (inactive); with KM12, > 100 µM (inactive); in the test with LOX IMVI, > 100 µM (inactive); in the test with MDA-MB-231, 28.8 µM (inactive); in the test on MDA-MB-435, > 100 µM (inactive); in the test on Malme-3M, 90.8 µM (inactive). Besides, the GI50 in the test on NCI-H226 is > 100 µM (inactive); with NCI-H460 it was > 100 µM (inactive); in the test on NCI/ADR-RES it was > 100 µM (inactive); in the test on RPMI-8226 it was > 100 µM (inactive); with SF-295 it was 23.7 µM (inactive); in the test on SN12C it was > 100 µM (inactive). For the same molecule, the GI50 in the test with TK-10 was > 100 µM (inactive).

As for `CC(C)(C)OC(=O)CN1CCNCCNCC1`, the GI50 is > 100 µM (inactive) with A498; > 100 µM (inactive) with A549; > 100 µM (inactive) in the test with COLO 205; above 100 µM in the test on HCT-15; 9.55 µM (inactive) with HL-60; > 100 µM (inactive) in the test on HOP-62. Besides, the GI50 with HOP-92, in the test on KM12, in the test on LOX IMVI, with MDA-MB-231, with MDA-MB-435 and in the test with Malme-3M was > 100 µM (inactive) in each case. In addition, the GI50 in the test on NCI-H226, in the test with NCI-H460, in the test with NCI/ADR-RES, with RPMI-8226, in the test with SF-295 and with SN12C was > 100 µM (inactive) throughout. For the same molecule, the GI50 in the test on TK-10 is > 100 µM (inactive).

Turning to `CN(CCC(=O)O)C1=Nc2ccc(Cl)cc2C(c2ccccc2)=[N+]([O-])C1`, the GI50 with A498 was > 100 µM (inactive); in the test on A549 it was > 100 µM (inactive); in the test on COLO 205, > 100 µM (inactive); in the test on HCT-15, above 100 µM; in the test on HL-60 it was > 100 µM (inactive); in the test on HOP-62, > 100 µM (inactive). Moreover, the GI50 in the test with HOP-92 was > 100 µM (inactive); in the test with KM12, > 100 µM (inactive); in the test with LOX IMVI it was > 100 µM (inactive); in the test on MDA-MB-231, > 100 µM (inactive); in the test with MDA-MB-435, 86.1 µM (inactive); in the test with Malme-3M it was > 100 µM (inactive). Besides, the GI50 in the test on NCI-H226, in the test with NCI-H460, with NCI/ADR-RES, with RPMI-8226, in the test with SF-295 and with SN12C was > 100 µM (inactive) each time. Further, the GI50 in the test with TK-10 is > 100 µM (inactive).

As for `COC(=O)CCN(CCC(=O)OC)C1CC1`, the GI50 in the test on A498 is > 100 µM (inactive); with A549, > 100 µM (inactive); with COLO 205 it was > 100 µM (inactive); in the test on HCT-15, above 100 µM; in the test with HL-60, > 100 µM (inactive); with HOP-62, > 100 µM (inactive). Also, the GI50 was 28.3 µM (inactive) with HOP-92; > 100 µM (inactive) in the test with KM12; > 100 µM (inactive) with LOX IMVI; > 100 µM (inactive) in the test on MDA-MB-231; > 100 µM (inactive) in the test on MDA-MB-435; > 100 µM (inactive) in the test on Malme-3M. The GI50 in the test with NCI-H226, in the test on NCI-H460, in the test with NCI/ADR-RES, in the test on RPMI-8226, in the test on SF-295 and with SN12C was > 100 µM (inactive) throughout. Moreover, the GI50 in the test on TK-10 was > 100 µM (inactive).
